Experiment [1] addresses T1, Alpha-1B adrenergic receptor (Homo sapiens, UniProt P35368).
T1 sequence (P35368 whole entry): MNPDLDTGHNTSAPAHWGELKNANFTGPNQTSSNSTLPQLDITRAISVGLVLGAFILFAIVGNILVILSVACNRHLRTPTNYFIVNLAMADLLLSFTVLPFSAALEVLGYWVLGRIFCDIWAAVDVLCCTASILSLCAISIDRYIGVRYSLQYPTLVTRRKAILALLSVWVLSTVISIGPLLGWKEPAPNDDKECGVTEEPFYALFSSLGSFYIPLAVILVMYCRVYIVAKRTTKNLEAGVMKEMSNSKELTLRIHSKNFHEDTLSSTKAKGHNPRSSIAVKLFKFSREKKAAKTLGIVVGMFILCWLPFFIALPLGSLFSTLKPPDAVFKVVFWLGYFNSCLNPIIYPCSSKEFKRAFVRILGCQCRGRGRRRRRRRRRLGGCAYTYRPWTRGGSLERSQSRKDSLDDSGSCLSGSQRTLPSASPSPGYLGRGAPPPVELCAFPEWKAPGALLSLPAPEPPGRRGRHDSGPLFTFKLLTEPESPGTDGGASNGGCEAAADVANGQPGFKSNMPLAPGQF
In words: PDSP Secondary Binding target: ADRA1B - Compounds are tested at 10 uM concentration, plate are incubated at room temperature in the dark for 90 minutes. Reaction are stopped by vacuum filtration onto 0.3% polyethyleneimine soaked filter mats using Filtermate harvester. Scintillation cocktail is then melted onto microwave-dried filters on a hot plate and the radio activity is counted in Microbia counter.

For experiment [2], the target named is D(1B) dopamine receptor (Homo sapiens, UniProt P21918). In words: PDSP Secondary Binding target: DRD5 - Compounds are tested at 10 uM concentration, plate are incubated at room temperature in the dark for 90 minutes. Reaction are stopped by vacuum filtration onto 0.3% polyethyleneimine soaked filter mats using Filtermate harvester. Scintillation cocktail is then melted onto microwave-dried filters on a hot plate and the radio activity is counted in Microbia counter.

For experiment [3], the target named is Histamine H2 receptor (Homo sapiens, UniProt P25021). In words: PDSP Secondary Binding target: HRH2 - Compounds are tested at 10 uM concentration, plate are incubated at room temperature in the dark for 90 minutes. Reaction are stopped by vacuum filtration onto 0.3% polyethyleneimine soaked filter mats using Filtermate harvester. Scintillation cocktail is then melted onto microwave-dried filters on a hot plate and the radio activity is counted in Microbia counter.

In experiment [4] the target is Sodium-dependent dopamine transporter (Homo sapiens, UniProt Q01959). Briefly: PDSP Secondary Binding target: SLC6A3 - Compounds are tested at 10 uM concentration, plate are incubated at room temperature in the dark for 90 minutes. Reaction are stopped by vacuum filtration onto 0.3% polyethyleneimine soaked filter mats using Filtermate harvester. Scintillation cocktail is then melted onto microwave-dried filters on a hot plate and the radio activity is counted in Microbia counter.

The target in experiment [5] is T2, D(4) dopamine receptor (Homo sapiens, UniProt P21917).
T2 sequence (P21917 whole entry): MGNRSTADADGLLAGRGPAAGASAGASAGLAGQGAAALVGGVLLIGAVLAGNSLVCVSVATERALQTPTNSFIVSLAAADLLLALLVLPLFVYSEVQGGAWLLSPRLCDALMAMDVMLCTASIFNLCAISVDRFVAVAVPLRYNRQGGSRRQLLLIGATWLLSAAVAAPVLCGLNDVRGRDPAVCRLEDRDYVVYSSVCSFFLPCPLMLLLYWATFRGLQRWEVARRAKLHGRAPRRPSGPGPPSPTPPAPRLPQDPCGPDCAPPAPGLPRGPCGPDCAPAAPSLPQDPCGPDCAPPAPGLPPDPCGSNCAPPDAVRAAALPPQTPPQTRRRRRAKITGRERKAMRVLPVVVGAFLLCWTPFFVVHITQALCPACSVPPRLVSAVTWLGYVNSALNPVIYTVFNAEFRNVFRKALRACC
Briefly: PDSP Secondary Binding target: DRD4 - Compounds are tested at 10 uM concentration, plate are incubated at room temperature in the dark for 90 minutes. Reaction are stopped by vacuum filtration onto 0.3% polyethyleneimine soaked filter mats using Filtermate harvester. Scintillation cocktail is then melted onto microwave-dried filters on a hot plate and the radio activity is counted in Microbia counter.

Experiment [6] addresses Beta-2 adrenergic receptor (Homo sapiens, UniProt P07550). Briefly: PDSP Secondary Binding target: ADRB2 - Compounds are tested at 10 uM concentration, plate are incubated at room temperature in the dark for 90 minutes. Reaction are stopped by vacuum filtration onto 0.3% polyethyleneimine soaked filter mats using Filtermate harvester. Scintillation cocktail is then melted onto microwave-dried filters on a hot plate and the radio activity is counted in Microbia counter.

Experiment [7] deals with T3, Alpha-1A adrenergic receptor (Homo sapiens, UniProt P35348).
T3 sequence (P35348 whole entry): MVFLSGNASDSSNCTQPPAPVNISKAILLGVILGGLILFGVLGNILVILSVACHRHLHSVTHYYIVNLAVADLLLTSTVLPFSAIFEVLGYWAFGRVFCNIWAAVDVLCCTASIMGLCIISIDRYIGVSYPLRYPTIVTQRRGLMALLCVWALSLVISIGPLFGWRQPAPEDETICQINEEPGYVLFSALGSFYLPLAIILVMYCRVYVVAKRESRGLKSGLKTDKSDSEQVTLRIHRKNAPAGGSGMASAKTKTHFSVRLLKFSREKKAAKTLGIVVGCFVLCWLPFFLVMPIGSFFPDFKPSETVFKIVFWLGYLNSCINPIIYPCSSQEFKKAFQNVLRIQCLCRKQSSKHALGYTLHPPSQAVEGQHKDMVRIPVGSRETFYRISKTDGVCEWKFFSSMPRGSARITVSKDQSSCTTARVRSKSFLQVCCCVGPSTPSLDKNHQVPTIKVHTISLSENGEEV
In words: PDSP Secondary Binding target: ADRA1A - Compounds are tested at 10 uM concentration, plate are incubated at room temperature in the dark for 90 minutes. Reaction are stopped by vacuum filtration onto 0.3% polyethyleneimine soaked filter mats using Filtermate harvester. Scintillation cocktail is then melted onto microwave-dried filters on a hot plate and the radio activity is counted in Microbia counter.

Experiment [8] has as its target 5-hydroxytryptamine receptor 1E (Homo sapiens, UniProt P28566). Briefly: PDSP Secondary Binding target: HTR1E - Compounds are tested at 10 uM concentration, plate are incubated at room temperature in the dark for 90 minutes. Reaction are stopped by vacuum filtration onto 0.3% polyethyleneimine soaked filter mats using Filtermate harvester. Scintillation cocktail is then melted onto microwave-dried filters on a hot plate and the radio activity is counted in Microbia counter.

Structures can show the parent of a compound that is named as a salt.

Histamine H2 receptor, sequence (P25021 whole entry): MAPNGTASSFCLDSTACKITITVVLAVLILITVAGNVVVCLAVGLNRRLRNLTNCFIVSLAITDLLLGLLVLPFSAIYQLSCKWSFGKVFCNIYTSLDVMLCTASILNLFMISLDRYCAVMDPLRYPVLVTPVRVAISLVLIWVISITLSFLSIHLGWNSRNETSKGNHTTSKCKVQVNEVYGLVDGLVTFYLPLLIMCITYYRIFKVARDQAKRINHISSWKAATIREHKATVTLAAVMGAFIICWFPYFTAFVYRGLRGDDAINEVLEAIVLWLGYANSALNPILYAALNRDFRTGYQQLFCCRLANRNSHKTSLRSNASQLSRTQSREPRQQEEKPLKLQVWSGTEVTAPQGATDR
Sodium-dependent dopamine transporter, sequence (Q01959 whole entry): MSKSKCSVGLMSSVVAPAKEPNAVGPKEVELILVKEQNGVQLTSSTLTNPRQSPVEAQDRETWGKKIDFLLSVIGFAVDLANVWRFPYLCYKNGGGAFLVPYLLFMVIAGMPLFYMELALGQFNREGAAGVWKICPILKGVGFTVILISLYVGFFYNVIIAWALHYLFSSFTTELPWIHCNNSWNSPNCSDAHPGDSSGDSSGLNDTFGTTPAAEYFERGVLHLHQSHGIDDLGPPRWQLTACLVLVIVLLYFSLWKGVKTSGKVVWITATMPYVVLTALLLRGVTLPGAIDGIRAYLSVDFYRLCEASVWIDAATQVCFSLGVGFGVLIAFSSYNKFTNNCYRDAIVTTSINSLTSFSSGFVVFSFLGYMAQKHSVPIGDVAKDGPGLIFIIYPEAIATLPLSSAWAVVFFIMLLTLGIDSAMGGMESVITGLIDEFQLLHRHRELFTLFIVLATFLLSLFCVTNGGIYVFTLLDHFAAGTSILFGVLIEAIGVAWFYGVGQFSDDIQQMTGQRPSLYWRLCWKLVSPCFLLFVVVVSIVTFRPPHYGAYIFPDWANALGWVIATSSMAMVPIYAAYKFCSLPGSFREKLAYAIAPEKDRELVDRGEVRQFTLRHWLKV
Beta-2 adrenergic receptor, sequence (P07550 whole entry): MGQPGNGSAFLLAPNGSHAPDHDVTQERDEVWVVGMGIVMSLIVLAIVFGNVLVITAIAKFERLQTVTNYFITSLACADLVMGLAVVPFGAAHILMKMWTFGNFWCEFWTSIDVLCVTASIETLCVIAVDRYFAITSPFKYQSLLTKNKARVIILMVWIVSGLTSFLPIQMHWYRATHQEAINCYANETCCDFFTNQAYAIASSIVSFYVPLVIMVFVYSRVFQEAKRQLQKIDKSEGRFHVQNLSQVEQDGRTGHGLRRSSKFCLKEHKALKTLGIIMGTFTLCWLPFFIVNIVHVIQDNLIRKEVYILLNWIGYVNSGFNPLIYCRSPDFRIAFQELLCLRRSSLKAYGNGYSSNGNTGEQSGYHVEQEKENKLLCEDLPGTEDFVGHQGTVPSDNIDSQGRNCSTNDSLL
D(1B) dopamine receptor, sequence (P21918 whole entry): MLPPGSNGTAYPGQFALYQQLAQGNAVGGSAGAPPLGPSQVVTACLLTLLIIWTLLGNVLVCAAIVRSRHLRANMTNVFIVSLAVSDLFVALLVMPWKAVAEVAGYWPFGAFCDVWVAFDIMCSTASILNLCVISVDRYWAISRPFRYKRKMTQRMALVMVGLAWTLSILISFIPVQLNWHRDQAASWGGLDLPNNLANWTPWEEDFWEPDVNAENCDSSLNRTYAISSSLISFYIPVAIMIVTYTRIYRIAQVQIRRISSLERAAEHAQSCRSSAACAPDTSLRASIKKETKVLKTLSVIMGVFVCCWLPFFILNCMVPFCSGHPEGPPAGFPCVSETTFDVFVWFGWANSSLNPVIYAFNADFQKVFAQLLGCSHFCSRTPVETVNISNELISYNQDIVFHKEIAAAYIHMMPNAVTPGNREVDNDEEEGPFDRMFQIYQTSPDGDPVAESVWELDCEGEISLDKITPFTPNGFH
5-hydroxytryptamine receptor 1E, sequence (P28566 whole entry): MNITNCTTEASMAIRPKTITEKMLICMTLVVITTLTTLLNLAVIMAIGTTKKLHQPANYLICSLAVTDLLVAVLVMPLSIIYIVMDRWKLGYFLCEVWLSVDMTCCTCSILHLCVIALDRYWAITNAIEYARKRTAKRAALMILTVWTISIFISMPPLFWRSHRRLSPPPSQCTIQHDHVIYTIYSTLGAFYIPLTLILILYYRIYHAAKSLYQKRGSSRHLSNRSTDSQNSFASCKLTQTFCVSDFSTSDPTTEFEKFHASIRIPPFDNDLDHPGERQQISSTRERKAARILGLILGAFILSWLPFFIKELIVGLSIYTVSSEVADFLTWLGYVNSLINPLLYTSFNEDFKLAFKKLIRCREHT

On to `CN1C2CCC1CC(OC(c1ccc(F)cc1)c1ccc(F)cc1)C2` (stereo unspecified), for which the Ki turned out to be 263 nM in experiment [1], 393 nM in experiment [2] and 594 nM in experiment [3].

For `COc1cccc([C@@H](C)NCCCc2ccccc2Cl)c1` [TECALCET HYDROCHLORIDE], the Ki in experiment [3] worked out at 1400 nM. That is a single-digit micromolar value.

`CCOC(=O)c1c(C)[nH]c2ccc3c(c12)CN1CCc2cc(OC)ccc2C1O3` (stereo unspecified): the Ki in experiment [4] is 673 nM; in experiment [3], 2840 nM.

`C[C@@H](NCCCc1cccc(C(F)(F)F)c1)c1cccc2ccccc12` [CINACALCET HYDROCHLORIDE]: the Ki in experiment [1] was determined as 2890 nM; in experiment [3], 2620 nM.

For the compound `Cc1cn2cc(CC(=O)N3CCC4(CC3)CN(Cc3ccc(-n5nccn5)cc3Cl)C4)nc2s1`, the values for the inhibitory constant (Ki) in experiment [5], in experiment [6] and in experiment [3] were 1360 nM, greater than 10000 nM and 3300 nM, respectively.

In turn, `Cc1c(P(=S)(c2ccccc2)c2ccccc2)n2ccccc2[n+]1C/C=C/c1ccccc1` had an inhibitory constant (Ki) in experiment [3] of 2960 nM.

Consider `Cc1ccc2c(c1)c1c(n2CCc2ccc(C)nc2)CCN(C)C1` [LATREPIRDINE], for which the inhibition constant (Ki) was 1310 nM in experiment [1], 414 nM in experiment [7], 5570 nM in experiment [8] and 215 nM in experiment [3].

For the origin of these results see ChEMBL document CHEMBL5442175, “EUbOPEN Chemogenomics Library - PDSP Secondary Binding” (2024).
